Measurements: patent US12605397B2, “Deoxy-cytidine or uridine derivatives for use in cancer therapies” (HEMISPHERIAN AS, priority 2019, dated 2026)
Entries after “also recorded” stand apart in the source; their conditions may differ. Like-named read-outs stand apart in the source and are kept apart here.

Legend:
[1] = mouse, in vivo, ip
Experimental: 5-hydroxymethyl-2′-deoxycytidine and 5-formyl-2′-deoxycytidine (Berry and Associates), were formulated in dimethyl sulfoxide (DMSO)/Solutol (RTM) R HS15/phosphate buffered saline (PBS) (5/5/90, v/v/v) at the concentration of 30 and 200 and 400 mg/mL for IP administration at the dosing volume of […]. A dosing volume at 10 or 20 ml/kg was applied.
Male ICR mice weighing 23±3 g were provided by BioLasco Taiwan (under Charles River Laboratories Licensee). […] All animals were maintained in a hygienic environment with controlled temperature (20-24° C.), humidity (30%-70%) and 12 hours light/dark cycles. Free access to sterilized standard lab diet [MFG (Oriental Yeast Co., Ltd., Japan)] and autoclaved tap water were granted.
5-hydroxymethyl-2′-deoxycytidine and 5-formyl-2′-deoxycytidine were administered IP to groups of three male ICR mice weighing 23±3 g. Animals received an initial dose of 300 mg/kg. If the animals survived for 72 hours, the dose for the next cohort was increased. If one or more animals died, the dose for the next cohort was decreased. The testing stopped when all animals survived at the upper bound, or when three dose levels had been tested or when the upper or lower bound had been reached. […] Body weights were recorded pre-dose and at 72 hours. […] Gross necropsy was performed on all animals without tissue collection, and the next dose level was determined based on the study design table.
The maximum tolerated dose (MTD) of these compounds in mice was determined as described above (Materials and Methods). […] While the end-point of the study was survival after 72 hours, the presence of acute toxic symptoms (mortality, convulsions, tremors, muscle relaxation, sedation, etc.) and autonomic effects (diarrhea, salivation, lacrimation, vasodilation, piloerection, etc.) in the animals was monitored during the first 30 minutes, and again at 1, 24, 48 and 72 hours. Body weights were recorded pre-dose and at 72 hours.

V79 cells = experiment: Survival assay (MTT), V79; assay type: cell-based; details: Cricetulus griseus, V79, Chinese Hamster Lung, 72 hours
Experimental: (§1) Cells were passed between 70 and 90% confluence.
(§2) Cells were incubated with the drugs for 72 hours.

Buffy C cells = experiment: Survival assay (MTT), Buffy C; assay type: cell-based, human; details: Homo sapiens, Normal, Bone Marrow, 72 hours
Experimental: as §1, §2
(§3) The present inventors further investigated the extent to which these compounds kill normal human cells; low cytotoxicity against normal human cells is advantageous property for anti-cancer agents. The cytotoxicity of these compounds in various normal human cell lines was therefore investigated (Table 3). Cells were grown and the survival assay was performed as described above (Materials and Methods).

HaCat cells = experiment: Survival assay (MTT), HaCat; assay type: cell-based, human; details: Homo sapiens, Normal, Keratinocytes, 72 hours
Experimental: as §1, §2, §3

Buffy M cells = experiment: Survival assay (MTT), Buffy M; assay type: cell-based, human; details: Homo sapiens, Normal, Bone Marrow, 72 hours
Experimental: as §1, §2, §3

[2] = Multiple MTD, repeated dose; assay type: in vivo; details: mice, IP 300, 1000, 2000 mg/kg every three days, 5 doses
Experimental: The test compounds were dosed every three days for a total of 5 doses (q3dx5).
In addition, body weights were recorded before each treatment and at 24, 48 and 72 hours after the final administration.
Mice were injected with the indicated compound at the indicated dose intraperitoneally once every three days for a total of 5 doses.

HAP1 cells = experiment: Survival assay (MTT), HAP1; assay type: cell-based, human
Experimental: as §2

human cancer cell lines = experiment: Survival assay, range of human cancer cell lines; assay type: cell-based; details: cell lines of Table 1
Experimental: as §2
With the knowledge that 5-formyl-2′-deoxycytidine is cytotoxic to cervical carcinoma (HeLa) cells, the study was expanded in two directions: (i) a further compound was assessed: 5-carboxyl-2′-deoxycytidine; and (ii) their cytotoxic effects against a wide range of human cancer cell lines was assessed (Table 1).

SF188 cells = experiment: Survival assay (MTT), SF188; assay type: cell-based, human; details: Homo sapiens, SF-188, SF188, Glioma, Grade IV, 72 hours
Experimental: as §1, §2

[3] = tested on: Hypoxanthine-guanine phosphoribosyltransferase (HPRT) gene in V79 cells; experiment: HPRT mutagenicity assay; assay type: cell-based, Chinese Hamster; details: V79 cells, 1, 10, 100 μM, 24 hours
Experimental: HPRT mutagenicity assay was performed in V79 cells. 50,000 V79 cells were treated with three different concentrations of either d5hmC or d5fC (1, 10, 100 μM) for 24 hours in a 6 well plate. DMSO was used as a negative control. After the treatment, the cells were subcultured as needed in T75 flasks for 9 days to allow expression of HPRT-mutants. 10,000 cells were replated into 10 replica Petri dishes (100×15 mm) with selective media (2.5 μg/ml of 6TG).
Survival (relative plating efficiency) was determined by plating 200 cells into four replica Petri dishes (60×15 mm) without selective media. Colonies were fixed, Giemsa-stained and counted 7 days later. The mutant frequency is expressed as a total number of mutants counted on all plates divided by the number of cells seeded corrected by reseeding plating efficiency. Experiment was performed three times, data represent mean of triplicate±SEM.

G30 cells = experiment: Survival assay (MTT), G30; assay type: cell-based, human; details: Homo sapiens, G30, Glioma, Grade IV, 72 hours
Experimental: as §1, §2

A-498 cells = experiment: Survival assay (MTT), A-498; assay type: cell-based, human; details: Homo sapiens
Experimental: as §1, §2

Buffy A cells = experiment: Survival assay (MTT), Buffy A; assay type: cell-based, human; details: Homo sapiens, Normal, Bone Marrow, 72 hours
Experimental: as §1, §2, §3

[4] = tested on: normal (non-cancerous) human cell lines; experiment: Survival assay, panel of normal (non-cancerous) human cell lines; assay type: cell-based; details: normal human cell lines of Table 3
Experimental: as §2, §3

glioblastoma multiforme = glioblastoma multiforme patients; cited from earlier work
H1437 cells = experiment: Survival assay (MTT), H1437; assay type: cell-based; details: Homo sapiens, NCI-H1437
Experimental: as §1, §2

H1573 cells = experiment: Survival assay (MTT), H1573; assay type: cell-based; details: Homo sapiens, NCI-H1573
Experimental: as §1, §2

[5] = Homo sapiens, HAP1, HAP1, Tables 6 and 7, unit inferred
[6] = A498, 72 h, A-498, Kidney Carcinoma, 72 hours, MTT
[7] = A498, A-498, Tables 6 and 7, unit inferred

Compound | tolerability of a single dose ([1]; 300 mg/kg) | tolerability of a single dose ([1]; 2000 mg/kg) | tolerability of a single dose ([1]; 8000 mg/kg) | IC50 (V79 cells) | IC50 (Buffy C cells) | IC50 (HaCat cells) | IC50 (Buffy M cells) | body weight compared with untreated animals [2] | IC50 (HAP1 cells; [5]) | cytotoxicity in the cancer cell lines evaluated (human cancer cell lines) | IC50 (SF188 cells) | mutagenicity / genotoxicity (HPRT mutant frequency) [3] | IC50 (G30 cells) | IC50 (A-498 cells; [6]) | IC50 (A-498 cells; [7]) | IC50 (Buffy A cells) | cytotoxicity to normal cell lines [4] | also measured
Nc1nc(=O)n([C@H]2C[C@H](O)[C@@H](CO)O2)cc1CO [2d5hmC, 5-hydroxymethyl-2′-deoxycytidine] | can tolerate | can tolerate | unable to tolerate | > 25 µM | > 25 µM | > 25 µM | > 25 µM | not statistically different | 6.53 µM | only cytotoxic to two cell lines evaluated | 8.97 µM | not to be mutagenic; also recorded: not mutagens | 28.1 µM | > 25 µM | ≥ 25 µM | > 25 µM | not cytotoxic to any of the normal cell lines evaluated | IC50 (HAP1 cells; HAP1, Chronic Myelogenous Leukemia (CML), 72 hours, MTT): > 3.03 µM
Cn1nnc2c(C(N)=O)ncn2c1=O [Temozolomide, 4-methyl-5-oxo-2,3,4,6,8-pentazabicyclo[4.3.0]nona-2,7,9-triene-9-carboxamide, reference compound] | – | – | – | – | – | > 25 µM | – | – | – | – | > 100 µM | – | 21.6 µM | > 25 µM | – | – | – | improvement of overall survival (glioblastoma multiforme): 2.5 months
Nc1nc(=O)n([C@H]2C[C@H](O)[C@@H](CO)O2)cc1C=O [2d5fC, 5-formyl-2′-deoxycytidine] | can tolerate | can tolerate | unable to tolerate | > 25 µM | > 25 µM | 0.102 µM | > 25 µM | not statistically different | ≥ 25 µM | cytotoxic to a wide range of human cancer cells | 28.2 µM | not to be mutagenic; also recorded: not mutagens | 18 µM | > 25 µM | ≥ 25 µM | > 25 µM | cytotoxic only to one normal human cell line | IC50 (HAP1 cells; Homo sapiens, HAP1, 72 h, HAP1, Chronic Myelogenous Leukemia (CML), 72 hours, MTT): > 25 µM; IC50 (H1437 cells; H1437, Lung (metastatic non-small cell adenocarcinoma), 72 hours, MTT): 5.65 µM; IC50 (H1437 cells; H1437, Tables 6 and 7, unit inferred): 5.65 µM; IC50 (H1573 cells; H1573, Lung (metastatic adenocarcinoma), 72 hours, MTT): 7.72 µM; IC50 (H1573 cells; H1573, Tables 6 and 7, unit inferred): 7.72 µM
